The results in this text go back to ChEMBL document CHEMBL2417402, “Development and therapeutic implications of selective histone deacetylase 6 inhibitors” (J Med Chem, 2013).

pIC50: −log10 of the molar value.

In one experiment the target is T1, Histone deacetylase 6 (Rattus norvegicus, UniProt Q99P97).
T1 sequence (Q99P97 whole entry): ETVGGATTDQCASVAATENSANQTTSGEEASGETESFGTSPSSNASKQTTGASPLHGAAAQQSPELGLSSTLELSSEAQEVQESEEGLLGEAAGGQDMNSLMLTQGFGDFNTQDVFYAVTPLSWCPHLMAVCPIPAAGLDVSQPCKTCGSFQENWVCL
Nature of the experiment: Inhibition of FLAG-tagged HDAC6 in rat liver extract using alpha-Ac tubulin as substrate.

For another experiment, the target named is Histone deacetylase 1 (Rattus norvegicus, UniProt Q4QQW4). Nature of the experiment: Inhibition of FLAG-tagged HDAC1 in rat liver extract using fluorescent small molecule as substrate.
Histone deacetylase 1, sequence (Q4QQW4 whole entry): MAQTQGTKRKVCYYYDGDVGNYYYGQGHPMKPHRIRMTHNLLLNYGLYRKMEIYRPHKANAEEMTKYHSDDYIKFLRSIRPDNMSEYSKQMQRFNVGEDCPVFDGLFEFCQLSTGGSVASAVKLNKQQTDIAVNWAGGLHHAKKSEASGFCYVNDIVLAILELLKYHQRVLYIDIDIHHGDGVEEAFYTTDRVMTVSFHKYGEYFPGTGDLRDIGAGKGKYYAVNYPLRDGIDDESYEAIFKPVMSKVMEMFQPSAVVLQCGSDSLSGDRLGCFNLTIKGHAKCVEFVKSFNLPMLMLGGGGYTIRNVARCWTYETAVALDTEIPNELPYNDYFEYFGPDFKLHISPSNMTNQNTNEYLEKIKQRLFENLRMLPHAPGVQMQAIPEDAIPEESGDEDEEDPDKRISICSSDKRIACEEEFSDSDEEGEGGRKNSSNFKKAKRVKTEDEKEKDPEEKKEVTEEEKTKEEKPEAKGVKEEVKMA

For orientation: pIC50 means the IC50 on a negative log10 scale, so that one unit is a factor of ten. A high value points to a small IC50. For the compound `COC(=O)[C@H](Cc1ccccc1)NC(=O)CCCCCCCCC(=O)NO`, the pIC50 against Histone deacetylase 6 was 6.04; against Histone deacetylase 1, 4.54.
